Assay results reported in patent publication US11780826B2 (Amgen Inc., priority 2017, dated 2023).

System: Bovine cardiac myofibrils
Experiment: In vitro model of dose-dependent myofibril ATPase modulation (AC1.4, pyruvate kinase/lactate dehydrogenase-coupled ATPase assay at pCa25)
Format: biochemical
Conditions: concentration at which ATPase activity was 1.4-fold higher than the bottom of the dose curve, mean of a minimum of two independent tests
In short: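 Coupled-enzyme ATPase on bovine heart myofibrils, 1 mM ATP, EGTA/CaCl2 buffered; 340 nm readout.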

| SMILES | AC1.4 |
| --- | --- |
| COc1ccc(C(C)NC(=O)[C@H]2CCCN2C(=O)[C@H]2CCCN(S(=O)(=O)N3CC(C#N)C3)C2)cc1F (stereo partly drawn) [Example 585, 1-(((3S)-1-((3-cyano-1-azetidinyl)sulfonyl)-3-piperidinyl)carbonyl)-N-((1R)-1-(3-fluoro-4-methoxyphenyl)ethyl)-D-prolinamide,1-(((3S)-1-((3-cyano-1-azetidinyl)sulfonyl)-3-piperidinyl)carbonyl)-N-((1S)-1-(3-fluoro-4-methoxyphenyl)ethyl)-D-prolinamide] | 3.413 µM |
| N#C[C@H]1C[C@H](S(=O)(=O)N2CCC[C@H](C(=O)N3CCC[C@@H]3C(=O)NCc3ccc(C(F)(F)F)cc3)C2)C1 [Example 587, 1-(((3S)-1-((trans-3-cyanocyclobutyl)sulfonyl)-3-piperidinyl)carbonyl)-N-(4-(trifluoromethyl)benzyl)-D-prolinamide] | 3.4385 µM |
| N#CC1CN(S(=O)(=O)N2CCC[C@H](C(=O)N3CCC[C@@H]3C(=O)NCC3CCC(C(F)(F)F)CC3)C2)C1 (stereo partly drawn) [Example 590, 1-(((3S)-1-((3-cyano-1-azetidinyl)sulfonyl)-3-piperidinyl)carbonyl)-N-((cis-4-(trifluoromethyl)cyclohexyl)methyl)-D-prolinamide,1-(((3S)-1-((3-cyano-1-azetidinyl)sulfonyl)-3-piperidinyl)carbonyl)-N-((4-(trifluoromethyl)cyclohexyl)methyl)-D-prolinamide] | 3.4675 µM |
| COc1ccc(CNC(=O)[C@H]2CCCN2C(=O)[C@H]2CCCN(S(=O)(=O)N3CC(C#N)C3)C2)cc1Cl [Example 591, N-(3-chloro-4-methoxybenzyl)-1-(((3S)-1-((3-cyano-1-azetidinyl)sulfonyl)-3-piperidinyl)carbonyl)-D-prolinamide] | 3.476 µM |
| Cc1cc(C(C)NC(=O)[C@H]2CCCN2C(=O)[C@H]2CCCN(S(=O)(=O)N3CC(C#N)C3)C2)ccc1F (stereo partly drawn) [Example 592, (2R)-1-((S)-1-((3-cyanoazetidin-1-yl)sulfonyl)piperidine-3-carbonyl)-N-(1-(4-fluoro-3-methylphenyl)ethyl)pyrrolidine-2-carboxamide] | 3.477 µM |
| O=C(N[C@@H](c1cc(F)c(C(F)(F)F)cc1F)C1CC1)[C@H]1C[C@H]2C[C@H]2N1C(=O)c1cc(C2CC2)ccn1 [Example 593, (1R,3R,5R)-N-((R)-cyclopropyl(2,5-difluoro-4-(trifluoromethyl)phenyl)methyl)-2-((4-cyclopropyl-2-pyridinyl)carbonyl)-2-azabicyclo[3.1.0]hexane-3-carboxamide] | 3.49 µM |
| CC(NC(=O)[C@H]1CCCN1C(=O)[C@H]1CCCN(S(=O)(=O)N2CC(C#N)C2)C1)c1ccc(OC(F)F)cc1 (stereo partly drawn) [Example 594, (2R)-1-((S)-1-((3-cyanoazetidin-1-yl)sulfonyl)piperidine-3-carbonyl)-N-(1-(4-(difluoromethoxy)phenyl)ethyl)pyrrolidine-2-carboxamide] | 3.505 µM |
| C[C@@H](NC(=O)[C@H]1CCCN1C(=O)c1cccc(S(=O)(=O)N2CC3(CC3)C2)c1)c1ccc(Cl)cc1 [Example 595, 1-((3-(5-azaspiro[2.3]hex-5-ylsulfonyl)phenyl)carbonyl)-N-((1R)-1-(4-chlorophenyl)ethyl)-D-prolinamide] | 3.5165 µM |
| CS(=O)(=O)c1cncc(C(=O)N2[C@@H](C(=O)N[C@@H](c3cc(F)c(C(F)(F)F)cc3F)C3CC3)C[C@@H]3C[C@@H]32)c1 [Example 598, (1S,3R,5S)-N-((R)-cyclopropyl(2,5-difluoro-4-(trifluoromethyl)phenyl)methyl)-2-((5-(methylsulfonyl)-3-pyridinyl)carbonyl)-2-azabicyclo[3.1.0]hexane-3-carboxamide] | 3.0525 µM |
| Cc1ccnc(C(=O)N2[C@@H](C(=O)N[C@@H](c3cc(F)c(Cl)cc3F)C3COC3)C[C@H]3C[C@H]32)c1 [Example 600, (1R,3R,5R)-N-((R)-(4-chloro-2,5-difluorophenyl)(3-oxetanyl)methyl)-2-((4-methyl-2-pyridinyl)carbonyl)-2-azabicyclo[3.1.0]hexane-3-carboxamide] | 3.6113 µM |
| Cc1cc(C(=O)N2[C@@H](C(=O)N[C@@H](c3cc(F)c(Cl)cc3F)C3COC3)C[C@H]3C[C@H]32)cc(C)n1 [Example 603, (1R,3R,5R)-N-((R)-(4-chloro-2,5-difluorophenyl)(3-oxetanyl)methyl)-2-((2,6-dimethyl-4-pyridinyl)carbonyl)-2-azabicyclo[3.1.0]hexane-3-carboxamide] | 3.6775 µM |
| Cc1cccc(CNC(=O)[C@H]2CCCN2C(=O)[C@H]2CCCN(S(=O)(=O)N3CC(C#N)C3)C2)c1F [Example 606, 1-(((3S)-1-((3-cyano-1-azetidinyl)sulfonyl)-3-piperidinyl)carbonyl)-N-(2-fluoro-3-methylbenzyl)-D-prolinamide] | 3.696 µM |
| Cc1cccc(F)c1CNC(=O)[C@H]1CCCN1C(=O)[C@H]1CCCN(S(=O)(=O)N2CC(C#N)C2)C1 [Example 607, 1-(((3S)-1-((3-cyano-1-azetidinyl)sulfonyl)-3-piperidinyl)carbonyl)-N-(2-fluoro-6-methylbenzyl)-D-prolinamide] | 3.714 µM |
| O=C(c1ccccc1)c1cccc(C(=O)N2[C@@H](C(=O)N[C@@H](c3cc(F)c(Cl)cc3F)C3CC3)C[C@H]3C[C@H]32)c1 [Example 608, (1R,3R,5R)-2-(3-benzoylbenzoyl)-N-((R)-(4-chloro-2,5-difluorophenyl)(cyclopropyl)methyl)-2-azabicyclo[3.1.0]hexane-3-carboxamide] | 3.7405 µM |
| O=C(NCc1ccc(C(F)(F)F)cc1F)[C@H]1CCCN1C(=O)[C@H]1CCCN(S(=O)(=O)N2CC(O)C2)C1 [Example 610, N-(2-fluoro-4-(trifluoromethyl)benzyl)-1-(((3S)-1-((3-hydroxy-1-azetidinyl)sulfonyl)-3-piperidinyl)carbonyl)-D-prolinamide] | 3.7735 µM |

More lines, now with the values ahead:

| AC1.4 | SMILES |
| --- | --- |
| 3.397 µM | CN(C)c1cccc(C(=O)N2CCC[C@@H]2C(=O)N[C@@H](c2ccc(C(F)(F)F)cc2F)C2CC2)c1 [Example 584, N-((R)-cyclopropyl(2-fluoro-4-(trifluoromethyl)phenyl)methyl)-1-(3-(dimethylamino)benzoyl)-D-prolinamide] |
| 2.881 µM | CS(=O)(=O)c1cccc(C(=O)N2CC[C@@H](F)[C@@H]2C(=O)N[C@@H](c2ccc(C(F)(F)F)cc2F)C2CC2)c1 [Example 589, (3R)-N-((R)-cyclopropyl(2-fluoro-4-(trifluoromethyl)phenyl)methyl)-3-fluoro-1-(3-(methylsulfonyl)benzoyl)-D-prolinamide] |
| 2.9335 µM | CS(=O)(=O)c1cccc(C(=O)N2[C@@H](C(=O)N[C@@H](c3ccc(C(F)(F)F)cc3)C3CC3)C[C@H]3C[C@H]32)c1 [Example 596, (1R,3R,5R)-N-((R)-cyclopropyl(4-(trifluoromethyl)phenyl)methyl)-2-(3-(methylsulfonyl)benzoyl)-2-azabicyclo[3.1.0]hexane-3-carboxamide] |
| 3.5295 µM | C[C@@H](NC(=O)[C@H]1CCCN1C(=O)[C@H]1CCCN(S(=O)(=O)N2CC(C)(O)C2)C1)c1ccc(C(F)(F)F)cc1F [Example 597, N-((1R)-1-(2-fluoro-4-(trifluoromethyl)phenyl)ethyl)-1-(((3S)-1-((3-hydroxy-3-methyl-1-azetidinyl)sulfonyl)-3-piperidinyl)carbonyl)-D-prolinamide] |
| 3.5615 µM | O=C(N[C@@H](c1ccc(C(F)(F)F)cc1F)C1CC1)[C@H]1C[C@H](F)CN1C(=O)c1cccc(C2(F)COC2)c1 [Example 599, (4S)-N-((R)-cyclopropyl(2-fluoro-4-(trifluoromethyl)phenyl)methyl)-4-fluoro-1-(3-(3-fluoro-3-oxetanyl)benzoyl)-D-prolinamide] |
| 3.276 µM | CC(O)C(NC(=O)[C@H]1C[C@H]2C[C@H]2N1C(=O)c1cccc(S(C)(=O)=O)c1)c1ccc(C(F)(F)F)cc1F (stereo partly drawn) [Example 601, (1R,3R,5R)-N-(1-(2-fluoro-4-(trifluoromethyl)phenyl)-2-hydroxypropyl)-2-(3-(methylsulfonyl)benzoyl)-2-azabicyclo[3.1.0]hexane-3-carboxamide] |
| 3.4595 µM | COc1ccc(S(C)(=O)=O)cc1C(=O)N1CCC[C@@H]1C(=O)N[C@@H](c1ccc(C(F)(F)F)cc1F)C1CC1 [Example 602, N-((R)-cyclopropyl(2-fluoro-4-(trifluoromethyl)phenyl)methyl)-1-(2-methoxy-5-(methylsulfonyl)benzoyl)-D-prolinamide] |
| 3.679 µM | N#CC1(c2cccc(C(=O)N3CCC[C@@H]3C(=O)N[C@@H](c3ccc(C(F)(F)F)cc3F)C3CC3)c2)CC1 [Example 604, 1-(3-(l-cyanocyclopropyl)benzoyl)-N-((R)-cyclopropyl(2-fluoro-4-(trifluoromethyl)phenyl)methyl)-D-prolinamide] |
| 3.685 µM | O=C(N[C@@H](c1ccc(C(F)(F)F)cc1F)C1CC1)[C@H]1C[C@H]2C[C@H]2N1C(=O)c1ccnc(C(F)F)c1 [Example 605, (1R,3R,5R)-N-((R)-cyclopropyl(2-fluoro-4-(trifluoromethyl)phenyl)methyl)-2-((2-(difluoromethyl)-4-pyridinyl)carbonyl)-2-azabicyclo[3.1.0]hexane-3-carboxamide] |
| 3.7443 µM | CS(=O)(=O)c1cccc(C(=O)N2CC3(CCC3)C2C(=O)N[C@@H](c2ccc(C(F)(F)F)cc2F)C2CC2)c1 (stereo partly drawn) [Example 609, N-((R)-cyclopropyl(2-fluoro-4-(trifluoromethyl)phenyl)methyl)-2-(3-(methylsulfonyl)benzoyl)-2-azaspiro[3.3]heptane-1-carboxamide] |
| 3.788 µM | O=C(N[C@@H](c1ccc(C(F)(F)F)cc1F)C1COC1)[C@H]1C[C@H]2C[C@H]2N1C(=O)c1cncc(C2CC2)c1 [Example 611, (1R,3R,5R)-2-((5-cyclopropyl-3-pyridinyl)carbonyl)-N-((R)-(2-fluoro-4-(trifluoromethyl)phenyl)(3-oxetanyl)methyl)-2-azabicyclo[3.1.0]hexane-3-carboxamide] |
